Measured values as given in ChEMBL document CHEMBL1201862, “PubChem BioAssay data set” (2004).
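Compound exposure: 48 hours, 5 concentrations, 96-well plates. GI50 = concentration required for 50% inhibition of growth.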 The source made the active and inactive calls. Cut-off read from the data, not from the text of the source: active = GI50 up to about 1.1 µM and inactive = higher.

Columns and labels:
Assay in all cases: NCI tumour cell line growth inhibition, 48 h
[1] = test system: MCF7
[2] = test system: UO-31
[3] = test system: M14
[4] = test system: IGROV-1
[5] = test system: SW-620
[6] = test system: MDA-N
[7] = test system: DMS-273
[8] = test system: HCT-116
[9] = test system: K562
[10] = test system: HCC 2998
[11] = test system: ACHN
[12] = test system: OVCAR-8
[13] = test system: TK-10
[14] = test system: NCI-H460
[15] = test system: RPMI-8226
[16] = test system: NCI/ADR-RES
[17] = test system: A549
[18] = test system: SF-268
[19] = test system: KM12
[20] = test system: SK-MEL-2

`COc1ccc(CC2C(=O)NC(C)C(=O)N(C)C3Cc4ccc(cc4)Oc4cc(ccc4O)CC(C(=O)NC(C)C(=O)NC(C)C(=O)N2C)N(C)C3=O)cc1` (stereo not drawn) was tested, and the GI50 [1] was 17.5 nM (active), the GI50 [2] was 0.857 µM (active) and the GI50 [3] was 0.0027 µM (active). The GI50 [4] was 0.0175 µM (active), the GI50 [5] was 0.0177 µM (active) and the GI50 [6] was < 0.1 nM (active). The GI50 [7] was 0.0175 µM (active), the GI50 [8] was 0.0175 µM (active) and the GI50 [9] was 0.0175 µM (active). The GI50 [10] was 0.0175 µM (active), the GI50 [11] was 0.0738 µM (active) and the GI50 [12] was 0.0191 µM (active). For the same compound, the GI50 [13] was 0.0257 µM (active), the GI50 [14] was 0.0175 µM (active) and the GI50 [15] was 0.0175 µM (active). The GI50 [16] was 2.44 µM (inactive).

With `CC(C)OC(=O)c1cccnc1/C=N/O` the GI50 [17] was > 100 µM (inactive), the GI50 [2] was > 100 µM (inactive) and the GI50 [3] was > 100 µM (inactive). For the same compound, the GI50 [4] was > 100 µM (inactive), the GI50 [5] was > 100 µM (inactive) and the GI50 [7] was > 100 µM (inactive). For the same compound, the GI50 [8] was > 100 µM (inactive), the GI50 [18] was > 100 µM (inactive) and the GI50 [9] was > 100 µM (inactive). For the same compound, the GI50 [19] was > 100 µM (inactive), the GI50 [10] was > 100 µM (inactive) and the GI50 [11] was > 100 µM (inactive). For the same compound, the GI50 [20] was > 100 µM (inactive), the GI50 [12] was > 100 µM (inactive) and the GI50 [13] was > 100 µM (inactive). The GI50 [14] was 84.1 µM (inactive) and the GI50 [15] was > 100 µM (inactive).

`CCOC(=O)/C=C1\CCCC12OCCO2` was tested, and the GI50 [17] was > 100 µM (inactive), the GI50 [2] was > 100 µM (inactive) and the GI50 [3] was > 100 µM (inactive). The GI50 [4] was > 100 µM (inactive), the GI50 [5] was > 100 µM (inactive) and the GI50 [7] was 53.5 µM (inactive). The GI50 [8] was 54.1 µM (inactive), the GI50 [18] was > 100 µM (inactive) and the GI50 [9] was > 100 µM (inactive). The GI50 [19] was > 100 µM (inactive), the GI50 [10] was > 100 µM (inactive) and the GI50 [11] was > 100 µM (inactive). For the same compound, the GI50 [20] was > 100 µM (inactive), the GI50 [12] was 89.5 µM (inactive) and the GI50 [13] was > 100 µM (inactive). The GI50 [14] was > 100 µM (inactive) and the GI50 [15] was 49.7 µM (inactive).

For `COc1cc(/C=C2/C(=O)N(C(=O)OCC(C)C)C(Cc3cc(OC)c(OC)c(C)c3OC)C(=O)N2Cc2ccccc2)c(OC)c(C)c1OC` (stereo not drawn), the GI50 [17] was > 100 µM (inactive), the GI50 [2] was 11.6 µM (inactive) and the GI50 [3] was 69.3 µM (inactive). For the same compound, the GI50 [4] was > 100 µM (inactive), the GI50 [5] was > 100 µM (inactive) and the GI50 [7] was > 100 µM (inactive). For the same compound, the GI50 [8] was 20.2 µM (inactive), the GI50 [18] was > 100 µM (inactive) and the GI50 [9] was 19.2 µM (inactive). For the same compound, the GI50 [19] was > 100 µM (inactive), the GI50 [10] was > 100 µM (inactive) and the GI50 [11] was > 100 µM (inactive). For the same compound, the GI50 [20] was 94.6 µM (inactive), the GI50 [12] was > 100 µM (inactive) and the GI50 [13] was > 100 µM (inactive). For the same compound, the GI50 [14] was 30.5 µM (inactive) and the GI50 [15] was 21.8 µM (inactive).

`CC(=O)OCCOCNC(=S)N/N=C/c1cc(Br)cs1` was tested, and the GI50 [17] was > 100 µM (inactive), the GI50 [2] was > 100 µM (inactive) and the GI50 [3] was > 100 µM (inactive). For the same compound, the GI50 [4] was > 100 µM (inactive), the GI50 [5] was > 100 µM (inactive) and the GI50 [7] was > 100 µM (inactive). The GI50 [8] was > 100 µM (inactive), the GI50 [18] was > 100 µM (inactive) and the GI50 [9] was > 100 µM (inactive). The GI50 [19] was > 100 µM (inactive), the GI50 [10] was > 100 µM (inactive) and the GI50 [11] was > 100 µM (inactive). For the same compound, the GI50 [20] was > 100 µM (inactive), the GI50 [12] was > 100 µM (inactive) and the GI50 [13] was > 100 µM (inactive). The GI50 [14] was > 100 µM (inactive) and the GI50 [15] was > 100 µM (inactive).

`O=C(CC(=O)c1cccc2ccccc12)C(=O)Nc1nccs1` was tested, and the GI50 [17] was > 100 µM (inactive), the GI50 [2] was > 100 µM (inactive) and the GI50 [3] was > 100 µM (inactive). For the same compound, the GI50 [4] was > 100 µM (inactive), the GI50 [5] was > 100 µM (inactive) and the GI50 [7] was > 100 µM (inactive). The GI50 [8] was > 100 µM (inactive), the GI50 [18] was > 100 µM (inactive) and the GI50 [9] was > 100 µM (inactive). The GI50 [19] was > 100 µM (inactive), the GI50 [10] was > 100 µM (inactive) and the GI50 [11] was > 100 µM (inactive). For the same compound, the GI50 [20] was > 100 µM (inactive), the GI50 [12] was > 100 µM (inactive) and the GI50 [13] was > 100 µM (inactive). The GI50 [14] was > 100 µM (inactive) and the GI50 [15] was > 100 µM (inactive).

For `c1ccc2c(NCCCCCCNc3c4ccccc4nc4ccccc34)c3ccccc3nc2c1`, the GI50 [17] was 0.29 µM (active), the GI50 [1] was 155 nM (active) and the GI50 [2] was 11.3 µM (inactive). For the same compound, the GI50 [3] was 1.23 µM (inactive), the GI50 [4] was 0.166 µM (active) and the GI50 [5] was 0.0458 µM (active). For the same compound, the GI50 [6] was 288 nM (active), the GI50 [7] was 0.0214 µM (active) and the GI50 [8] was 0.0392 µM (active). The GI50 [18] was 0.56 µM (active), the GI50 [9] was 0.0649 µM (active) and the GI50 [19] was 0.215 µM (active). For the same compound, the GI50 [10] was 0.171 µM (active), the GI50 [11] was 0.23 µM (active) and the GI50 [20] was 1.26 µM (inactive). For the same compound, the GI50 [12] was 0.289 µM (active), the GI50 [13] was 1.34 µM (inactive) and the GI50 [14] was 0.0631 µM (active). For the same compound, the GI50 [15] was < 0.0358 µM (active) and the GI50 [16] was 17.9 µM (inactive).

For `CN(C)CCN1C(=O)c2cccc3cc(N)cc(c23)C1=O` [AMONAFIDE], the GI50 [1] was 1870 nM (inactive), the GI50 [2] was 4.18 µM (inactive) and the GI50 [3] was 3.72 µM (inactive). The GI50 [4] was 3.49 µM (inactive), the GI50 [5] was 1.65 µM (inactive) and the GI50 [6] was 2900 nM (inactive). The GI50 [7] was 2.07 µM (inactive), the GI50 [8] was 1.87 µM (inactive) and the GI50 [18] was 5.46 µM (inactive). For the same compound, the GI50 [9] was 3.23 µM (inactive), the GI50 [19] was 4.37 µM (inactive) and the GI50 [10] was 2.48 µM (inactive). For the same compound, the GI50 [11] was 0.718 µM (active), the GI50 [20] was 2.46 µM (inactive) and the GI50 [12] was 2.14 µM (inactive). The GI50 [13] was 3.89 µM (inactive), the GI50 [14] was 0.767 µM (active) and the GI50 [15] was 2.49 µM (inactive). The GI50 [16] was 3.33 µM (inactive).

For `C[C@H](N)C(=O)N[C@@H]1[C@H]2C(=C(O)C[C@@H](O)[C@@H]2O)C(=O)O[C@]1(C)C(Cl)Cl` [BACTOBOLIN], the GI50 [17] was 0.187 µM (active), the GI50 [1] was 146 nM (active) and the GI50 [2] was 0.979 µM (active). The GI50 [3] was 0.128 µM (active), the GI50 [4] was 0.361 µM (active) and the GI50 [5] was 0.145 µM (active). For the same compound, the GI50 [6] was 105 nM (active), the GI50 [7] was 0.327 µM (active) and the GI50 [8] was 0.145 µM (active). The GI50 [18] was 0.184 µM (active), the GI50 [19] was 0.172 µM (active) and the GI50 [10] was 0.164 µM (active). For the same compound, the GI50 [11] was 0.176 µM (active), the GI50 [20] was 0.222 µM (active) and the GI50 [12] was 0.167 µM (active). The GI50 [13] was 0.356 µM (active), the GI50 [14] was 0.111 µM (active) and the GI50 [16] was 3.36 µM (inactive).
